Among the data in patent US7550485B2, “Substituted N-heterocycle derivatives and methods of their use” (Wyeth, priority 2003, dated 2009) are inhibition and EC50 values, retold here.

Broadly, the inhibition is the change of the read-out against control, counted positive when it falls. The EC50 is the concentration at which the effect is half-maximal. A high value points to lower potency in that assay.

This assay concerns the target T1, hNET (Homo sapiens, UniProt P23975).
T1 construct: expressed in transfected cells
As to the kind of experiment: Norepinephrine (NE) uptake assay in MDCK-Net6 cells stably transfected with human hNET. In kind it is cell-based. The note with it: [3H]NE uptake; for inhibition at 1 µM: MDCK-Net6, 1 μM test compound; for EC50: test range 1 to 10,000 nM. As to the method:
MDCK-Net6 cells, stably transfected with human hNET (Pacholczyk, T., R. D. Blakely, and S. G. Amara, Nature, 1991, 350(6316): p. 350-4) were cultured in growth medium containing high glucose DMEM (Gibco, Cat. No. 11995), 10% FBS (dialyzed, heat-inactivated, US Bio-Technologies, Lot FBD1129HI) and 500 μg/ml G418 (Gibco, Cat. No. 10131). Cells were plated at 300,000/T75 flask and cells were split twice weekly. The JAR cell line (human placental choriocarcinoma) was purchased from ATCC (Cat. No. HTB-144). The cells were cultured in growth medium containing RPMI 1640 (Gibco, Cat. No. 72400), 10% FBS (Irvine, Cat. No. 3000), 1% sodium pyruvate (Gibco, Cat. No. 1136) and 0.25% glucose. Cells were plated at 250,000 cells/T75 flask and split twice weekly. For all assays, cells were plated in Wallac 96-well sterile plates (PerkinElmer, Cat. No. 3983498).
Norepinephrine (NE) Uptake Assay
On day 1, cells were plated at 3,000 cells/well in growth medium and maintained in a cell incubator (37° C., 5% CO2). On day 2, growth medium was replaced with 200 μl of assay buffer (25 mM HEPES; 120 mM NaCl; 5 mM KCl; 2.5 mM CaCl2; 1.2 mM MgSO4; 2 mg/ml glucose (pH 7.4, 37° C.)) containing 0.2 mg/ml ascorbic acid and 10 μM pargyline. Plates containing cells with […] of assay buffer were equilibrated for 10 minutes at 37° C. prior to addition of compounds. A stock solution of desipramine was prepared in DMSO (10 mM) and delivered to triplicate wells containing cells for a final test concentration of 1 μM. Data from these wells were used to define non-specific NE uptake (minimum NE uptake). Test compounds were prepared in DMSO (10 mM) and diluted in assay buffer according to test range (1 to 10,000 nM). Twenty-five microliters of assay buffer (maximum NE uptake) or test compound were added directly to triplicate wells containing cells in 200 μl of assay buffer. The cells in assay buffer with test compounds were incubated for 20 minutes at 37° C. To initiate the NE uptake, [^3H]NE diluted in assay buffer (120 nM final assay concentration) was delivered in 25 μl aliquots to each well and the plates were incubated for 5 minutes (37° C.). The reaction was terminated by decanting the supernatant from the plate. The plates containing cells were washed twice with 200 μl assay buffer (37° C.) to remove free radioligand. The plates were then inverted, left to dry for 2 minutes, then reinverted and air-dried for an additional 10 minutes. The cells were lysed in 25 μl of 0.25 N NaOH solution (4° C.), placed on a shake table and vigorously shaken for 5 minutes. After cell lysis, 75 μl of scintillation cocktail was added to each well and the plates were sealed with film tape. The plates were returned to the shake table and vigorously shaken for a minimum of 10 minutes to ensure adequate partitioning of organic and aqueous solutions. The plates were counted in a Wallac Microbeta counter (PerkinElmer) to collect the raw cpm data.
For each experiment, a data stream of cpm values collected from the Wallac Microbeta counter was downloaded to a Microsoft Excel statistical application program. Calculations of EC50 values were made using the transformed-both-sides logistic dose response program written by Wyeth Biometrics Department. The statistical program uses mean cpm values from wells representing maximum binding or uptake (assay buffer) and mean cpm values from wells representing minimum binding or uptake ((1 μM desipramine (hNET) or 1 μM paroxetine (hSERT)). Estimation of the EC50 value was completed on a log scale and the line was fit between the maximum and minimum binding or uptake values. All graphic data representation was generated by normalizing each data point to a mean percent based on the maximum and minimum binding or uptake values. The EC50 values reported from multiple experiments were calculated by pooling the raw data from each experiment and analyzing the pooled data as one experiment.

Where a name gives a salt, the structure may show the parent alone.

T1 sequence (P23975 whole entry): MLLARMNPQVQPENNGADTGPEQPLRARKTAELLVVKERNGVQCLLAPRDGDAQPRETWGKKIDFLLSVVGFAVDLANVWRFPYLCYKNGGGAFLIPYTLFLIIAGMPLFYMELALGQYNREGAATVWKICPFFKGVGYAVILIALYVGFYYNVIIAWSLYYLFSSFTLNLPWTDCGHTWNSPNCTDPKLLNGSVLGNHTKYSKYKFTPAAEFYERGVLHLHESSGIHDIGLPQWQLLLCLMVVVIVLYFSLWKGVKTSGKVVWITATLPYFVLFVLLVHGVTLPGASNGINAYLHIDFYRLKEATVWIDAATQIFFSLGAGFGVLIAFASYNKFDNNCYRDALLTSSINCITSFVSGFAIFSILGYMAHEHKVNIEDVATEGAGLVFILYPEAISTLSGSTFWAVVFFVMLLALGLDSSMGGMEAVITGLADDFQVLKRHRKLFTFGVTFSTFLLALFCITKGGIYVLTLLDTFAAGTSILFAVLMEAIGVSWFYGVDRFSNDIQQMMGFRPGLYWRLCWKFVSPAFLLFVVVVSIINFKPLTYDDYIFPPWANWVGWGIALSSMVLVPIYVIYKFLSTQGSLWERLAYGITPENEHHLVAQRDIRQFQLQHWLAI

`CN(C)C1CCN(CC(c2ccc3ccccc3c2)C2(O)CCCCC2)CC1` (stereo not shown) [Example 317, 1-[2-[4-(dimethylamino)piperidin-1-yl]-1-(2-naphthyl)ethyl]cyclohexanol dihydrochloride] had an inhibition at 1 µM of 21.2%.
In turn, `NC1CCN(CC(c2ccc(OC(F)(F)F)cc2)C2(O)CCC2)CC1` (stereo not shown) [Example 305, 1-{2-(4-aminopiperidin-1-yl)-1-[4-(trifluoromethoxy)phenyl]ethyl}cyclobutanol dihydrochloride] had an inhibition at 1 µM of 49.9%.
The compound `CN(C)[C@H]1CCCN(CC(c2cccc(OC(F)(F)F)c2)C2(O)CCCCC2)C1` (stereo partly drawn) [Example 191, 1-{2-[(3S)-3-(dimethylamino)piperidin-1-yl]-1-[3-(trifluoromethoxy)phenyl]ethyl}cyclohexanol dihydrochloride] yielded an inhibition at 1 µM of 12.3%.
`OC1(C(CN2CCC(N3CCCC3)CC2)c2ccc(Cl)c(Cl)c2)CCCCC1` (stereo not shown) [Example 11, 1-[1-(3,4-dichlorophenyl)-2-(4-pyrrolidin-1-ylpiperidin-1-yl)ethyl]cyclohexanol dihydrochloride] showed an inhibition at 1 µM of 91% and an EC50 of 260 nM.
Regarding `COc1ccc(C(CN2CCC(N3CCCCC3)CC2)C2(O)CCCCC2)cc1Br` (stereo not shown) [Example 8, 1-[2-(1,4′-bipiperidin-1′-yl)-1-(3-bromo-4-methoxyphenyl)ethyl]cyclohexanol dihydrochloride], the inhibition at 1 µM amounted to 95% and the response was half-maximal at 140 nM (EC50).
Taken in the same sequence, the figures for `OC1([C@H](CN2CCC(N3CCCCC3)CC2)c2cccc(OC(F)(F)F)c2)CCCCC1` [Example 366, 1-{(1S)-2-(1,4′-bipiperidin-1′-yl)-1-[3-(trifluoromethoxy)phenyl]ethyl}cyclohexanol dihydrochloride] were 99% and 110 nM.
Taken in the same sequence, the figures for `OC1(C(CN2CCC(N3CCOCC3)CC2)c2cccc(OC(F)(F)F)c2)CCCCC1` (stereo not shown) [Example 361, 1-{2-(4-morpholin-4-ylpiperidin-1-yl)-1-[3-(trifluoromethoxy)phenyl]ethyl}cyclohexanol dihydrochloride] were 67% and 640 nM.
`COc1ccc(C(CN2CCC(N3CCCC3)CC2)C2(O)CCCCC2)cc1Br` (stereo not shown) [Example 9, 1-[1-(3-bromo-4-methoxyphenyl)-2-(4-pyrrolidin-1-ylpiperidin-1-yl)ethyl]cyclohexanol dihydrochloride] returned an inhibition at 1 µM of 93% and a concentration for a half-maximal effect (EC50) of 180 nM.
Consider `N[C@H]1CCN(CC(c2ccc3ccccc3c2)C2(O)CCCCC2)C1` (stereo partly drawn) [Example 204, 1-[2-[(3S)-3-aminopyrrolidin-1-yl]-1-(2-naphthyl)ethyl]cyclohexanol dihydrochloride], for which at 1 µM the inhibition was 70.4%.
`COc1ccc2cc(C(CN3CCC(N)CC3)C3(O)CCCCC3)ccc2c1` (stereo not shown) [Example 342, 1-[2-(4-aminopiperidin-1-yl)-1-(6-methoxy-2-naphthyl)ethyl]cyclohexanol dihydrochloride] registered an inhibition at 1 µM of 59% and an EC50 of 390 nM.
Take `CN(C)[C@@H]1CCN(CC(c2ccc(OCc3ccccc3)c(Cl)c2)C2(O)CCCCC2)C1` (stereo partly drawn) [Example 384, 1-{1-[4-(benzyloxy)-3-chlorophenyl]-2-[(3R)-3-(dimethylamino)pyrrolidin-1-yl]ethyl}cyclohexanol dihydrochloride]: the inhibition at 1 µM amounted to 88% and the EC50 was determined as 450 nM.
Taken in the same sequence, the figures for `CNC1CCN(CC(c2cccc(C(F)(F)F)c2)C2(O)CCCCC2)CC1` (stereo not shown) [Example 30, 1-{2-[4-(methylamino)piperidin-1-yl]-1-[3-(trifluoromethyl)phenyl]ethyl}cyclohexanol dihydrochloride] were 79% and 530 nM.
In turn, `CN(C)[C@@H]1CCN(CC(c2ccc3ccccc3c2)C2(O)CCCCC2)C1` (stereo partly drawn) [Example 375, 1-[2-[(3R)-3-(dimethylamino)pyrrolidin-1-yl]-1-(2-naphthyl)ethyl]cyclohexanol dihydrochloride] registered an inhibition at 1 µM of 39%.
Same read-out and setting: next, `NC1CCN(CC(c2cccc3ccccc23)C2(O)CCC2)CC1` (stereo not shown) [Example 43, 1-[2-(4-aminopiperidin-1-yl)-1-(1-naphthyl)ethyl]cyclobutanol dihydrochloride]: 47%.
Same read-out and setting: next, `CN[C@@H]1CCN(CC(c2ccc3ccccc3c2)C2(O)CCCCC2)C1` (stereo partly drawn) [Example 376, 1-[2-[(3R)-3-(methylamino)pyrrolidin-1-yl]-1-(2-naphthyl)ethyl]cyclohexanol dihydrochloride]: 30%.
Compound `NC1CCN(CC(c2ccc(Cl)c(Cl)c2)C2(O)CCCCC2)CC1` (stereo not shown) [Example 14, 1-[2-(4-aminopiperidin-1-yl)-1-(3,4-dichlorophenyl)ethyl]cyclohexanol dihydrochloride] came in with an inhibition at 1 µM of 84% and an EC50 of 89 nM.
In turn, `CN[C@H]1CCN(CC(c2ccc(OCc3ccccc3)c(Cl)c2)C2(O)CCCCC2)C1` (stereo partly drawn) [Example 209, 1-{1-[4-(benzyloxy)-3-chlorophenyl]-2-[(3S)-3-(methylamino)pyrrolidin-1-yl]ethyl}cyclohexanol dihydrochloride] gave an inhibition at 1 µM of 98.5%.
Turning to `CNC1CCN(CC(c2ccc(Cl)c(Cl)c2)C2(O)CCCCC2)CC1` (stereo not shown) [Example 13, 1-{1-(3,4-dichlorophenyl)-2-[4-(methylamino)piperidin-1-yl]ethyl}cyclohexanol dihydrochloride], the inhibition at 1 µM came out at 89% and the EC50 is 210 nM.
As for `N[C@H]1CCN(CC(c2cccc(C(F)(F)F)c2)C2(O)CCCCC2)C1` (stereo partly drawn) [Example 221, 1-{2-[(3S)-3-aminopyrrolidin-1-yl]-1-[3-(trifluoromethyl)phenyl]ethyl}cyclohexanol dihydrochloride], the inhibition at 1 µM came to 63.9%.
On the same count and under the same terms, next, `N[C@@H]1CCN(CC(c2ccc3ccccc3c2)C2(O)CCCCC2)C1` (stereo partly drawn) [Example 374, 1-[2-[(3R)-3-aminopyrrolidin-1-yl]-1-(2-naphthyl)ethyl]cyclohexanol dihydrochloride]: 46%; `CN[C@@H]1CCN(CC(c2cccc(Cl)c2)C2(O)CCCCC2)C1` (stereo partly drawn) [Example 200, 1-{1-(3-chlorophenyl)-2-[(3R)-3-(methylamino)pyrrolidin-1-yl]ethyl}cyclohexanol dihydrochloride]: 54.1%.
The same measure, in the same setting: next, `OC1(C(CN2CCC(N3CCCCC3)CC2)c2ccc(OCCc3ccccc3)cc2)CCCCC1` (stereo not shown) [Example 461, 1-{2-(1,4′-bipiperidin-1′-yl)-1-[4-(2-phenylethoxy)phenyl]ethyl}cyclohexanol dihydrochloride]: 17%; `OC1(C(CN2CCC(N3CCCCC3)CC2)c2ccc(OC(F)(F)F)cc2)CCCCC1` (stereo not shown) [Example 284, 1-{2-(1,4′-bipiperidin-1′-yl)-1-[4-(trifluoromethoxy)phenyl]ethyl}cyclohexanol dihydrochloride]: 91.1%; `CN[C@H]1CCN(CC(c2ccc3ccccc3c2)C2(O)CCCCC2)C1` (stereo partly drawn) [Example 203, 1-[2-[(3S)-3-(methylamino)pyrrolidin-1-yl]-1-(2-naphthyl)ethyl]cyclohexanol dihydrochloride]: 59.2%.
